Data: patent publication US8168651B2, “Protein kinase modulators” (Cylene Pharmaceuticals, Inc., priority 2008, dated 2012)
Blank lines part the entries; values can stand above or below the molecule they belong to.

Key:
[1] = system: HCT-116 human colorectal carcinoma cells; assay: Cell-proliferation assay using Alamar Blue dye; type: cell-based; conditions: Homo sapiens, HCT-116, second HCT-116 column (c8); read-out: HCT-116 (uM) cell proliferation modulatory activity;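 also: cells exposed to compound for about 4 days, then Alamar Blue added and dye fluorescence read after about 4 h, compared with medium-only control wells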
recombinant human PIM1 = recombinant human PIM1 (Homo sapiens (Human), UniProt P11309); assay: PIM-1 kinase activity in cell-free in vitro assay; type: biochemical; conditions: cell-free assay; for inhibition at 0.5 µM: 500 nM compound, read-out: PIM-1: % inh 500 nM
recombinant human PIM1, sequence (P11309 whole entry): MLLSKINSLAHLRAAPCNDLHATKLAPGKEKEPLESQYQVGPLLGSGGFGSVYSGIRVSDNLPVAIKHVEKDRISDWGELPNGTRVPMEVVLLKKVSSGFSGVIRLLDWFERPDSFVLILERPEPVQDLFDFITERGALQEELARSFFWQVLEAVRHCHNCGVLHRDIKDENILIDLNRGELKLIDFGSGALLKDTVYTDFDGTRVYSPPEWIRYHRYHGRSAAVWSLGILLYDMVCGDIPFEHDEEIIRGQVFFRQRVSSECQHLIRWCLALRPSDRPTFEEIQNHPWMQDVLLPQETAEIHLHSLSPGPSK

Jurkat = assay: Cell proliferation modulatory activity, Jurkat; type: cell-based; conditions: Homo sapiens; Jurkat cells
K-562 [2] = assay: Cell proliferation modulatory activity, K-562; type: cell-based; conditions: Homo sapiens, K562; K-562 cells
MV-4-11 = assay: Cell proliferation modulatory activity, MV-4-11; type: cell-based; conditions: Homo sapiens, MV4-11; MV-4-11 cells
Flt3 = Flt3 (Homo sapiens (Human), UniProt P36888); conditions: cited from earlier work
Flt3, sequence (P36888 27-993): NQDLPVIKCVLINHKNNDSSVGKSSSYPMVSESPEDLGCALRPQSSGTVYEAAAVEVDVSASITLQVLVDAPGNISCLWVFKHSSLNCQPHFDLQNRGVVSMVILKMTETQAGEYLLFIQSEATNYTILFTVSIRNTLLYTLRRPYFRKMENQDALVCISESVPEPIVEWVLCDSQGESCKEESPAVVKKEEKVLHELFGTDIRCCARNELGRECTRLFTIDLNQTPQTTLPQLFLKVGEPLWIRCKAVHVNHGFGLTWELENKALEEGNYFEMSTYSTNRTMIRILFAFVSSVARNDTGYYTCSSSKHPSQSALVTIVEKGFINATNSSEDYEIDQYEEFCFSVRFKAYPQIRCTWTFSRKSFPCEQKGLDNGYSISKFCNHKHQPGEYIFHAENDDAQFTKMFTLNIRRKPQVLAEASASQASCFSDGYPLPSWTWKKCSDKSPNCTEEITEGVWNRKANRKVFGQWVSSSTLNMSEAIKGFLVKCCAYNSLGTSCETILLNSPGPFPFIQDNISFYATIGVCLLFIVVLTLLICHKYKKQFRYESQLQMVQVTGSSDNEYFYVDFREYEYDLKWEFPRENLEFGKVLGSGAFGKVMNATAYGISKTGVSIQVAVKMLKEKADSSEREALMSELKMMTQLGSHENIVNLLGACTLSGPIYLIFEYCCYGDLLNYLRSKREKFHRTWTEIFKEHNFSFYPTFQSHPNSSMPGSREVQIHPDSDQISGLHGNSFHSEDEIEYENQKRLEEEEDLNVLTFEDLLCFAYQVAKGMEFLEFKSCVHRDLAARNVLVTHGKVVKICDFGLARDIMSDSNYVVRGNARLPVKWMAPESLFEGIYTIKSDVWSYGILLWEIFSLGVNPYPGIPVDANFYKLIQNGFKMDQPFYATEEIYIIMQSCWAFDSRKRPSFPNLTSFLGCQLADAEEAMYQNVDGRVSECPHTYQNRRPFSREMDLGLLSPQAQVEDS

[3] = Pharmacokinetics after IV and PO dose in ICR mice; type: in vivo; conditions: for half-life: mouse, plasma
Protocol: […] Blood samples were collected at predetermined times and the plasma separated. Plasma was separated from the blood samples collected at 5, 15 and 30 minutes and 1, 2, 4, 8 and 24 hours post-dose.
Drug levels were quantified by the LC/MS/MS method described below. Noncompartmental pharmacokinetic analysis was applied for intravenous administration. A linear trapezoidal rule was used to compute AUC(0-24). The terminal t1/2 and C0 were calculated using the last three and the first three data points, respectively
(§1) Bioanalysis was performed using a Quattro Micro LC/MS/MS instrument in the MRM detection mode, with an internal standard (IS). Briefly, 15 µL plasma samples were prepared for analysis using protein precipitation with 120 μL of acetonitrile. The supernatants were transferred into a 96 well plate and subjected to LC-MS/MS analysis using a Phenomenex Polar-RP HPLC column. The mobile phases were 10 mM NH4HCO3 in water (Solution-A) and 10 mM NH4HCO3 in methanol (Solution-B). […] Quantitation of the analytes was performed in the batch mode with two bracketing calibration curves according to the bioanalytical sample list.

[4] = Pharmacokinetics after IV and PO dose in SD rats; type: in vivo; conditions: for Tmax / half-life / Cmax / Vd: rat, plasma
Protocol: (§2) The pharmacokinetics properties of drugs were also investigated in SD rats and beagle dogs following an intravenous (IV) bolus and oral (PO) doses of drug using similar methods. Blood samples were collected at predetermined times and the plasma separated.
(§3) Drug levels were quantified by the LC/MS/MS method described below. Noncompartmental pharmacokinetic analysis was applied for intravenous administration. […] The terminal t1/2 and C0 were calculated using the last three and the first three data points, respectively
as §1

[5] = Pharmacokinetics after IV and PO dose in beagle dogs; type: in vivo; conditions: for Cmax / Vd / half-life / Tmax: plasma
Protocol: as §2, §3, §1

MCF-7 xenografts = assay: Tumor suppression in MCF-7 xenograft animals; type: in vivo, NCr nu/nu mice; conditions: oral 100 mg/kg
Protocol: (§4) Animals were handled under laminar-flow hoods.
(§5) Gemzar™ administered at a dose of 80 mg/kg IP Q3D was used as a positive control.

PC-3 xenografts = assay: Tumor suppression in PC-3 xenograft animals; type: in vivo, NCr nu/nu mice; conditions: oral 150 mg/kg
Protocol: as §4, §5

[6] = system: A549 (human lung cancer cells) xenograft; assay: Tumor suppression in A549 xenograft mice; type: in vivo; conditions: oral administration
From the text: as §4
The compound was delivered by oral administration for such determinations.

[7] = system: BX-PC3 (human pancreatic cancer cells) xenograft; assay: Tumor suppression in BX-PC3 xenograft mice; type: in vivo
[8] = Distribution of compound in plasma and tumors of animals; type: in vivo, mice
Protocol: The distribution of compound A1 in the plasma and tumors of animals was assessed.

caspase-3 cell staining = assay: Caspase-3 staining as biomarker in treated tumors; type: in vivo, mice; conditions: 60 mg/kg IV
Protocol: Caspase staining also was assessed as a biomarker for compound A1 treatment of tumors.

MiaPaca xenografts = assay: Tumor suppression in MiaPaca xenograft mice; type: in vivo, NCr nu/nu mice
Protocol: as §4
Tumor volume measurements (FIG. 3A) and body weight (FIG. 3B) were recorded on days 3, 6, 8, 10, 13 and 15.
as §5

MDA-MB-231 xenografts = assay: Tumor suppression in MDA-MB-231 xenograft animals; type: in vivo, mice; conditions: IV 30 and 60 mg/kg and oral 200 mg/kg
From the text: as §4

[9] = Body weight of tumor-bearing xenograft animals; type: in vivo, mice; conditions: BC-PC3 xenograft; IV or IP dosing, days 1-18
[10] = Tumor pharmacokinetic studies, IV QDx6; type: in vivo, mice; conditions: 30 mg/kg IV QD×6
HUVEC cells = assay: Human endothelial tube formation assay (BD BioCoat Angiogenesis System); type: cell-based; conditions: 18 hrs
[11] = system: leukemic cells from AML patients; conditions: cited from earlier work
MV-4-11 (AML) xenograft = MV-4-11 (AML) xenograft model; cited from earlier work
MOLM-13 (AML) xenograft = MOLM-13 (AML) xenograft model; cited from earlier work
A549 = assay: Cell-proliferation assay using Alamar Blue dye; type: cell-based; conditions: Homo sapiens
In short: (§6)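 Using 4,000-5,000 cells per well, cultures were exposed to compound for four days at 37° C., 5% CO2. Alamar Blue was then added for 4 h, and fluorescence was read at 544 nm excitation / 590 nm emission.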

LNCaP = assay: Cell-proliferation assay using Alamar Blue dye; type: cell-based; conditions: Homo sapiens
In short: as §6

MCF-7 = assay: Cell-proliferation assay using Alamar Blue dye; type: cell-based; conditions: Homo sapiens, MCF7
In short: as §6

MDAMB231 = assay: Cell-proliferation assay using Alamar Blue dye; type: cell-based; conditions: Homo sapiens, MDA-MB-231
In short: as §6

K-562 [12] = assay: Cell-proliferation assay using Alamar Blue dye; type: cell-based; conditions: Homo sapiens, K562
[13] = Sprague-Dawley, IV 2.50 mg/kg, SD rats
[14] = dog, 0.8 mg/kg, IV 0.80 mg/kg, Beagle dogs
[15] = dog, PO 3.80 mg/kg, Beagle dogs
[16] = Sprague-Dawley, PO 8.06 mg/kg, SD-Rats

IC50 [1]: > 10 µM | inhibition at 0.5 µM (recombinant human PIM1): 44.3% | IC50 (Jurkat): 14.2 µM
Compound: O=C(O)c1ccc2c(c1)nc(Nc1ccc(OCc3ccccc3)cc1)c1ccncc12

IC50 [1]: > 10 µM | inhibition at 0.5 µM (recombinant human PIM1): 27.7% | IC50 (Jurkat): 29.8 µM | IC50 (K-562 [2]): > 10 µM | IC50 (MV-4-11): > 10 µM
Compound: O=C(O)c1ccc2c(c1)nc(Nc1ccccc1OCc1ccccc1)c1ccncc12

IC50 [1]: > 10 µM | inhibition at 0.5 µM (recombinant human PIM1): 88.4% | IC50 (recombinant human PIM1): 0.259 µM | IC50 (Jurkat): 29.6 µM | IC50 (K-562 [2]): > 10 µM | IC50 (MV-4-11): > 10 µM
Compound: O=C(O)c1ccc2c(c1)nc(Nc1ccc3c(c1)OCCO3)c1ccncc12

Compound: C[C@]12O[C@H](C[C@]1(O)CO)n1c3ccccc3c3c4c(c5c6ccccc6n2c5c31)CNC4=O [CEP-701]
inhibition of Flt3 (Flt3): potent inhibitor

Compound: O=C(O)c1ccc2c(c1)nc(Nc1cccc(Cl)c1)c1ccncc12 [Compound A1]
CLs ([3]; IV 5 mg/kg): 25 mL/min/kg | Cp0-exp ([3]; IV 5 mg/kg): 13201 ng/mL | Kel ([3]; IV 5 mg/kg): 0.1586 h⁻¹ | F(0-8 h) ([3]; PO 25 mg/kg): 10.9% | F(0-inf h) ([3]; PO 25 mg/kg): 18.7% | Kel ([3]; PO 25 mg/kg): 0.1076 h⁻¹ | half-life ([3]; IV 5 mg/kg): 4.4 h | half-life ([3]; PO 25 mg/kg): 6.4 h | Tmax ([4]; Sprague-Dawley, po, […]): 1 h | half-life ([4]; Sprague-Dawley, po, […]): 4.5 h | Cmax [4, 13]: 21300 ng/mL | Vd [4, 13]: 2.5 L/kg | half-life [4, 13]: 9.8 h | AUC(0-12 h) ([5]; IV 0.80 mg/kg, Beagle dogs): 349 ng · h · mI^−1 | AUC(0-Inf) ([5]; IV 0.80 mg/kg, Beagle dogs): 352 ng · h · mI^−1 | CLs ([5]; IV 0.80 mg/kg, Beagle dogs): 38.3 mL/min/kg | Cp0-exp ([5]; IV 0.80 mg/kg, Beagle dogs): 1406 ng/mL | Kel ([5]; IV 0.80 mg/kg, Beagle dogs): 0.5546 h⁻¹ | AUC(0-Inf) ([5]; IV MC 0.80 mg/kg, Beagle dogs): 633 ng · h · mI^−1 | Cmax [5, 14]: 1040 ng/mL | Vd [5, 14]: 4.1 L/kg | half-life [5, 14]: 1.2 h | Cmax [5, 15]: 495 ng/mL | Tmax [5, 15]: 0.5 h | half-life [5, 15]: 1.2 h | tumor growth (MCF-7 xenografts): significantly inhibited tumor growth | tumor growth (PC-3 xenografts): significantly inhibited tumor growth | tumor growth [6]: significantly inhibited tumor growth | tumor growth ([7]; BX-PC3 xenograft mice, oral administration): significantly inhibited tumor growth | compound identified in plasma ([8]; 30 mg/kg IV): about 6.8 micromolar | compound identified in tumors ([8]; 30 mg/kg IV): about 42.9 micromolar | compound identified in plasma ([8]; 60 mg/kg IV): ~2.2 µM | compound identified in tumors ([8]; 60 mg/kg IV): ~7.0 µM | compound identified in plasma ([8]; 200 mg/kg orally): ~9.5 µM | compound identified in tumors ([8]; 200 mg/kg orally): ~6.4 µM | caspase-3 cell staining levels versus untreated control cells (caspase-3 cell staining): four-fold greater

AUC(0-12 h) ([4]; IV 1.56 mg/kg, SD Rats): 39194 ng · h · mI^−1 | AUC(0-Inf) ([4]; IV 1.56 mg/kg, SD Rats): 36659 ng · h · mI^−1 | CLs ([4]; IV 1.56 mg/kg, SD Rats): 1.7 mL/min/kg | Cp0-exp ([4]; IV 1.56 mg/kg, SD Rats): 47935 ng/mL | Kel ([4]; IV 1.56 mg/kg, SD Rats): 0.1215 h⁻¹ | tl/2 ([4]; IV 1.56 mg/kg, SD Rats): 5.7 h | AUC(0-12 h) ([4]; PO 8.06 mg/kg, SD-Rats): 73945 ng · h · mI^−1 | AUC(0-Inf) ([4]; PO 8.06 mg/kg, SD-Rats): 80286 ng · h · mI^−1 | F(0-8 h) ([4]; PO 8.06 mg/kg, SD-Rats): 31.2% | F(0-12 h) ([4]; PO 8.06 mg/kg, SD-Rats): 37.7% | F(0-Inf) ([4]; PO 8.06 mg/kg, SD-Rats): 43.8% | Kel ([4]; PO 8.06 mg/kg, SD-Rats): 0.1077 h⁻¹ | tl/2 ([4]; PO 8.06 mg/kg, SD-Rats): 6.4 h | Cmax ([4]; Sprague-Dawley, IV 1.56 mg/kg, SD Rats): 34300 ng/mL | Cmax [4, 16]: 6670 ng/mL | Tmax [4, 16]: 2 h | Vd ([4]; IV 1.56 mg/kg, SD Rats): 0.6 L/kg | AUC(0-12 h) ([5]; IV 2.00 mg/kg, Dog): 1414 ng · h · mI^−1 | AUC(0-Inf) ([5]; IV 2.00 mg/kg, Dog): 1437 ng · h · mI^−1 | CLs ([5]; IV 2.00 mg/kg, Dog): 23.3 mL/min/kg | Cp0-exp ([5]; IV 2.00 mg/kg, Dog): 3847 ng/mL | Kel ([5]; IV 2.00 mg/kg, Dog): 0.1360 h⁻¹ | tl/2 ([5]; IV 2.00 mg/kg, Dog): 5.1 h | Cmax ([5]; beagle, IV 2.00 mg/kg, Dog): 3070 ng/mL | Vd ([5]; beagle, IV 2.00 mg/kg, Dog): 10.2 L/kg | Cmax ([5]; beagle, PO 7.50 mg/kg, Dog): 1210 ng/mL | Tmax ([5]; beagle, PO 7.50 mg/kg, Dog): 1 h | half life change on repeated dosing [10]: about doubles
Compound: C#Cc1cccc(Nc2nc3cc(C(=O)O)ccc3c3cncnc23)c1 [Compound A2]
tumor progression (MiaPaca xenografts; IV 50 and 60 mg/kg and IP 100 mg/kg): significantly inhibited tumor progression | tumor progression (MiaPaca xenografts; oral 100 mg/kg QD×8 and 200 mg/kg QD×6): significantly inhibited tumor progression | tumor progression (FIG. 4A) ([7]; BC-PC3 xenograft, 60 mg/kg QD IV, 50 mg/kg BID IV or 100 mg/kg BID IP): significantly inhibited tumor progression | tumor progression (MDA-MB-231 xenografts): significantly inhibited tumor progression | body weight (FIG. 4B) [9]: not significantly altering body weight | concentration range inhibiting tube formation (HUVEC cells): 1 to 5 µM

Compound: CN(C)C[C@@H]1CCn2cc(c3ccccc32)C2=C(C(=O)NC2=O)c2cn(c3ccccc23)CCO1 [Ly5333′531]
cell growth and cell death [11]: suppressed cell growth and induced cell death

Compound: CN1CCC(CNc2ccc3ncc(-c4cccc(OC(F)(F)F)c4)n3n2)CC1 [SGI-1776]
tumor regression (MV-4-11 (AML) xenograft): significant tumor regression | tumor regression (MOLM-13 (AML) xenograft): significant tumor regression

IC50 (A549): 32.5 µM | IC50 (LNCaP): 13.9 µM | IC50 (MCF-7): 47.6 µM | IC50 (MDAMB231): 14.2 µM | IC50 (K-562 [12]): 9.18 µM
Compound: O=C(O)c1ccc2c(c1)nc(NCCc1cccc(Cl)c1)c1ccncc12 [drawing 1001]

IC50 (A549): > 50 µM | IC50 (LNCaP): 10.4 µM | IC50 (MCF-7): > 50 µM | IC50 (MDAMB231): 7.66 µM | IC50 (K-562 [12]): 7.17 µM
Compound: O=C(O)c1ccc2c(c1)nc(NCCCc1ccccc1)c1ccncc12 [drawing 1003]
